Where two headings read alike, the source gives them in different places.
Tests used:
Assay type in all cases: in vivo
[1] = system: Echinochloa crus-galli var. formosensis at the three-leaf stage; assay: Comparative Example: herbicidal effect test by application during growth period of paddy rice (three-leaf stage, Table 7); conditions: 504 h, active ingredient 7.5 g per 10 ares, emulsifiable concentrate applied by dropper to flooded pots, 21 days after chemical application, triplicate, read-out: Weed inhibition rate (%)
Method: As an example, the herbicidal effect on Echinochloa crus-galli var. formosensis at the three-leaf stage was confirmed by the following method, and the results are specifically shown in Table 7 as a comparative example.
Wagner pots with an area of […] were filled with paddy soil, followed by addition of water and incorporation of chemical fertilizer (N:P:K = 16:16:16), after which puddling was performed. After that, 30 seeds of Echinochloa crus-galli var. formosensis were sown at a depth of 0 cm to 1 cm. Immediately after sowing, the pots were flooded and a water depth of approximately 3 cm was maintained. Subsequent management was conducted in a glass greenhouse. When Echinochloa crus-galli var. formosensis reached the three-leaf stage, an emulsifiable concentrate prepared according to Formulation Example 5 using the compound shown below was diluted with water, and a specified amount of the diluted solution was applied by dropper. The amount of the active ingredient to be applied was equivalent to 7.5 g per 10 ares. The test was conducted in triplicate for each chemical concentration group, and the weed inhibition rate (%) was determined 21 days after chemical application using the following formula (Math. 1).

[2] = system: Lindernia pyxidaria; assay: Test Example 1: herbicidal effect test by soil application in paddy rice; conditions: 336 h, 120 g active ingredient per 10 ares, applied immediately after sowing, flooded pots, 14 days after application, read-out: weed inhibition rate
Summary of the method: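 Inhibition rate (%) read 14 days after treatment, duplicate pots. Water-diluted emulsifiable concentrate was applied by dropper at 120 g active ingredient/10 ares right after sowing. Seeds (30 per species, 0–1 cm deep) went into puddled paddy soil kept flooded at about 3 cm in a greenhouse.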

[3] = system: Chenopodium album; assay: Test Example 4: herbicidal effect test by stem and leaf treatment in upland field; conditions: 120 g per 10 ares, sprayed seven days after sowing, upland soil, 14 days after application, read-out: weed inhibition rate
[4] = system: Lindernia pyxidaria; assay: Test Example 2: herbicidal effect test by application during growth period of paddy rice; conditions: 120 g per 10 ares, applied seven days after sowing, flooded pots, 14 days after application, read-out: weed inhibition rate
Summary of the method: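 Flooded paddy pot test, greenhouse. Seeds 30/species, 0–1 cm depth, water ~3 cm. EC diluted in water, dropper-applied 7 d post-sowing at 120 g a.i./10 a. Inhibition rate (%) read 14 d after treatment; n=2.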

[5] = system: Amaranthus viridis; assay: Test Example 7: herbicidal effect test by soil application in upland field (low dose); conditions: read-out: weed inhibition rate
[6] = system: Lindernia pyxidaria; assay: Test Example 5: herbicidal effect test by soil application in paddy rice (low dose); conditions: 336 h, 7.5 g per 10 ares, applied immediately after sowing, flooded pots, 14 days after application, read-out: weed inhibition rate
Summary of the method: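 Pre-emergence paddy test: seeds sown 0–1 cm (30 each), pots flooded ~3 cm, greenhouse. EC dilution dropped into water right after sowing, 7.5 g a.i./10 a. Duplicate pots; weed inhibition rate (%) by formula, day 14.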

[7] = system: Amaranthus viridis; assay: Test Example 4: herbicidal effect test by stem and leaf treatment in upland field; conditions: 120 g per 10 ares, sprayed seven days after sowing, upland soil, 14 days after application, read-out: weed inhibition rate
Summary of the method: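 Upland alluvial loam soil in pots, twenty seeds per weed species mixed into top 1 cm; seven days after sowing, emulsifiable concentrate diluted in water sprayed at 100 liters per 10 ares, active ingredient 120 g per 10 ares. Weed inhibition rate (%) scored 14 days after application, duplicate per concentration.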

[8] = 7.5 g per 10 ares, sprayed one day after sowing, upland soil, 14 days after application

Structure (SMILES)	inhibition at 75 g/ha [1]	pest or weed control at 1200 g/ha [2]	inhibition at 1200 g/ha [4]	further results
CC(C)[C@]12C[C@@H](OCc3c(F)cccc3F)[C@](C)(C[C@@H]1Br)O2 [1-21, (1S,2R,4R,5S)-5-bromo-2-[(2,6-difluorophenyl)methoxy]-1-methyl-4-isopropyl-7-oxabicyclo[2.2.1]heptane]	93%	–	–	–
Cc1ccccc1CO[C@@H]1C[C@]2(C(C)C)O[C@@]1(C)CC2=O [2-3, (1R,4S,5R)-1-isopropyl-4-methyl-5-((2-methylbenzyl)oxy)-7-oxabicyclo[2.2.1]heptan-2-one]	–	≥ 80%	≥ 80%	inhibition at 1200 g/ha [3]: ≥ 80%
CC(C)[C@]12C[C@@H](OCc3ccccc3F)[C@](C)(C[C@@H]1I)O2 [1-753, (1S,2R,4R,SS)-2-[(2-fluorophenyl)methoxy]-5-iodo-1-methyl-4-isopropyl-7-oxabicyclo[2.2.1]heptane]	93%	–	–	inhibition at 75 g/ha ([5]; soil): ≥ 80%
COC1(OC)C[C@]2(C)O[C@@]1(C(C)C)C[C@H]2OCc1ccccc1F [1-935, (1R,4S,5R)-5-((2-fluorobenzyl)oxy)-1-isopropyl-2,2-dimethoxy-4-methyl-7-oxabicyclo[2.2.1]heptane]	–	≥ 80%	≥ 80%	–
Cc1ccccc1CO[C@@H]1C[C@]2(C(C)C)O[C@@]1(C)C[C@@H]2Br [1-16, (1S,2R,4R,5S)-5-bromo-1-methyl-2-[(2-methylphenyl)methoxy]-4-isopropyl-7-oxabicyclo[2.2.1]heptane]	–	≥ 80%	–	–
CCO[C@H]1C[C@]2(C)O[C@@]1(C(C)C)C[C@H]2OCc1ccccc1F [1-183, (1S,2R,4R,5S)-5-ethoxy-2-[(2-fluorophenyl)methoxy]-1-methyl-4-isopropyl-7-oxabicyclo[2.2.1]heptane]	93%	–	–	–
CC(C)[C@]12C[C@@H](OCc3ccccc3Cl)[C@](C)(CC1=O)O2 [2-11, (1R,4S,5R)-5-((2-chlorobenzyl)oxy)-1-isopropyl-4-methyl-7-oxabicyclo[2.2.1]heptan-2-one]	–	–	≥ 80%	–
Cc1cccc(C)c1CO[C@@H]1C[C@]2(C(C)C)O[C@@]1(C)CC2=O [2-5, (1R,4S,5R)-5-((2,6-dimethylbenzyl)oxy)-1-isopropyl-4-methyl-7-oxabicyclo[2.2.1]heptan-2-one]	–	≥ 80%	≥ 80%	inhibition at 75 g/ha [6]: ≥ 80%
CC(C)[C@]12C[C@@H](OCc3c(F)cccc3F)[C@](C)(CC1C)O2 (stereo partly drawn) [1-111, (1S,2R,4R)-2-((2,6-difluorobenzyl)oxy)-4-isopropyl-1,5-dimethyl-7-oxabicyclo[2.2.1]heptane]	100%	–	–	–
CC(C)[C@]12C[C@@H](OCc3ccccc3)[C@](C)(C[C@@H]1Br)O2 [1-15, (1S,2R,4R,5S)-5-bromo-1-methyl-2-phenylmethoxy-4-isopropyl-7-oxabicyclo[2.2.1]heptane]	80%	–	–	–
CC(C)[C@]12C[C@@H](OCc3ccccc3F)[C@](C)(C/C1=N\O)O2 [2-197, (1R,4S,5R,E)-5-((2-fluorobenzyl)oxy)-1-isopropyl-4-methyl-7-oxabicyclo[2.2.1]heptan-2-one oxime]	–	≥ 80%	–	inhibition at 1200 g/ha [7]: ≥ 80%
CC(C)[C@]12C[C@@H](OCc3ccc(F)cc3)[C@](C)(CC1=O)O2 [2-349, (1R,4S,5R)-5-((4-fluorobenzyl)oxy)-1-isopropyl-4-methyl-7-oxabicyclo[2.2.1]heptan-2-one]	–	≥ 80%	≥ 80%	inhibition at 1200 g/ha [7]: ≥ 80%
Cc1ccccc1CO[C@@H]1C[C@]2(C(C)C)O[C@@]1(C)C[C@@H]2I [1-741, (1S,2R,4R,5S)-5-iodo-1-methyl-2-[(2-methylphenyl)methoxy]-4-isopropyl-7-oxabicyclo[2.2.1]heptane]	–	≥ 80%	–	inhibition at 75 g/ha [6]: ≥ 80%
CCC1C[C@]2(C)O[C@@]1(C(C)C)C[C@H]2OCc1ccccc1F (stereo partly drawn) [1-126, (1R,4S,5R)-2-ethyl-5-[(2-fluorobenzyl)oxy]-1-isopropyl-4-methyl-7-oxabicyclo[2.2.1]heptane]	100%	–	–	–
Cc1ccccc1CO[C@@H]1C[C@@]2(C(C)C)C=C[C@]1(C)O2 [3-2, (1R,4S,5R)-4-methyl-5-[(2-methylphenyl)methoxy]-1-isopropyl-7-oxabicyclo[2.2.1]hept-2-ene]	–	–	–	inhibition at 75 g/ha [5, 8]: ≥ 80%
CC(C)[C@]12C[C@@H](OCc3ccccc3C#N)[C@](C)(C[C@@H]1Br)O2 [1-703, 2-[[(1S,2R,4R,5S)-5-bromo-1-methyl-4-isopropyl-7-oxabicyclo[2.2.1]heptan-2-yl]oxymethyl]benzonitrile]	–	≥ 80%	≥ 80%	–
C=CCO[C@H]1C[C@]2(C)O[C@@]1(C(C)C)C[C@H]2OCc1ccccc1F [1-1602, (1S,2R,4R,5S)-2-[(2-fluorophenyl)methoxy]-1-methyl-4-isopropyl-5-prop-2-enoxy-7-oxabicyclo[2.2.1]heptane]	82%	–	–	–
Cc1ccccc1CO[C@@H]1C[C@]2(C(C)C)O[C@@]1(C)C/C2=N\O [2-191, (1R,4S,5R,E)-1-isopropyl-4-methyl-5-((2-methylbenzyl)oxy)-7-oxabicyclo[2.2.1]heptan-2-one oxime]	–	–	–	inhibition at 1200 g/ha [7]: ≥ 80%
CC(C)[C@]12C[C@@H](OCc3ccccc3F)[C@](C)(C[C@@H]1F)O2 [1-5, (1R,2S,4S,5R)-2-fluoro-5-((2-fluorobenzyl)oxy)-1-isopropyl-4-methyl-7-oxabicyclo[2.2.1]heptane]	100%	–	–	inhibition at 1200 g/ha [3]: ≥ 80%
CC(C)[C@]12C[C@@H](OCc3ccccc3Br)[C@](C)(C[C@@H]1Br)O2 [1-694, (1S,2R,4R,5S)-5-bromo-2-[(2-bromophenyl)methoxy]-1-methyl-4-isopropyl-7-oxabicyclo[2.2.1]heptane]	–	–	–	inhibition at 75 g/ha [5, 8]: ≥ 80%
CC(C)=CCO[C@@H]1C[C@]2(C(C)C)O[C@@]1(C)C[C@@H]2Br [1-672, (1S,2R,4R,5S)-5-bromo-1-methyl-2-(3-methylbut-2-enoxy)-4-isopropyl-7-oxabicyclo[2.2.1]heptane]	–	–	≥ 80%	–
Cc1ccccc1CO[C@@H]1C[C@]2(C(C)C)O[C@@]1(C)CC2C (stereo partly drawn) [1-83, (1S,2R,4R)-4-isopropyl-1,5-dimethyl-2-((2-methylbenzyl)oxy)-7-oxabicyclo[2.2.1]heptane]	99%	–	–	inhibition at 1200 g/ha [3]: ≥ 80%
CC(C)[C@]12C[C@@H](OCc3c(F)cccc3F)[C@](C)(C[C@@H]1F)O2 [1-7, (1S,2R,4R,5S)-2-((2,6-difluorobenzyl)oxy)-5-fluoro-4-isopropyl-1-methyl-7-oxabicyclo[2.2.1]heptane]	100%	≥ 80%	–	inhibition at 1200 g/ha [3]: ≥ 80%; inhibition at 75 g/ha [5, 8]: ≥ 80%
CC(C)[C@]12C[C@@H](OCc3ccccc3F)[C@](C)(C[C@@H]1Br)O2 [1-19, (1S,2R,4R,5S)-5-bromo-2-[(2-fluorophenyl)methoxy]-1-methyl-4-isopropyl-7-oxabicyclo[2.2.1]heptane]	88%	≥ 80%	≥ 80%	inhibition at 1200 g/ha [3]: ≥ 80%
CC(C)[C@]12C[C@@H](OCc3cccc(F)c3)[C@](C)(CC1=O)O2 [2-351, (1R,4S,5R)-5-((3-fluorobenzyl)oxy)-1-isopropyl-4-methyl-7-oxabicyclo[2.2.1]heptan-2-one]	–	≥ 80%	≥ 80%	inhibition at 1200 g/ha [3]: ≥ 80%
